From the supplement of paper PMC10627819

Columns and labels:
[1] = system: S. pneumoniae D39V; test: fitness (endpoint OD595 vs no drug) (fraction); higher = more growth
In short: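 In 384-well plates at 37 °C, cultures began at OD595 0.01 in 30 µl, with 55 µl used for S. pneumoniae. OD595 readings every 30 min for 14 h were corrected by the first reading. Fitness divides the stationary-phase transition optical density by the robust mean of no-drug control wells. The result is capped at 1.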

[2] = system: S. aureus DSM 20231; test: Bliss interaction score (quartile over a dose matrix) (fitness difference); higher = more antagonism (negative = synergy)
In short: (§1)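 Fitness is OD595 at stationary-phase entry relative to the plate's robust no-drug mean, capped at 1. Single-drug fitness was inferred from combinations. The Bliss score is observed minus product-expected fitness, summarised by quartiles over technical, biological and donor/recipient replicates.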

[3] = system: S. pneumoniae D39V; test: as above
In short: as §1

[4] = system: B. subtilis 168; test: as above
In short: as §1

[5] = system: S. aureus Newman; test: as above
In short: as §1
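Wherever Bliss interaction score (quartile over a dose matrix) is given: first quartile when negative (synergy) and third quartile when positive (antagonism).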

CC[C@H]1OC(=O)[C@H](C)[C@@H](O[C@H]2C[C@@](C)(OC)[C@@H](O)[C@H](C)O2)[C@H](C)[C@@H](O[C@@H]2O[C@H](C)C[C@H](N(C)C)[C@H]2O)[C@](C)(OC)C[C@@H](C)C(=O)[C@H](C)[C@@H](O)[C@]1(C)O [Clarithromycin] + CN(N=O)C(=O)N[C@@H](C=O)[C@@H](O)[C@H](O)[C@H](O)CO [Streptozotocin]
fitness, [1], one replicate
Settings	first compound 0.007812 µg/mL	first compound 0.01562 µg/mL	first compound 0.03125 µg/mL	first compound 0.0625 µg/mL	first compound 0.125 µg/mL	first compound 0.25 µg/mL
partner 1.2 µg/mL	0.873	0.804	0.673	0.674	0.263	0.0915
partner 2.4 µg/mL	0.877	0.815	0.672	0.713	0.32	0.134
partner 4.8 µg/mL	0.87	0.802	0.661	0.537	0.0252	0

fitness, [1]
Settings	first compound 0.07 µg/mL	first compound 0.14 µg/mL	first compound 0.28 µg/mL
partner 1.2 µg/mL	0.115	0.0648	0.031
partner 2.4 µg/mL	0.119	0.0981	0.0724
partner 4.8 µg/mL	0.0916	0.0774	0.033

Settings	Bliss interaction score
[2]	0.0361
[3]	0.0525
[4]	0.0503
[5]	-0.0313

CC[C@H]1OC(=O)[C@H](C)[C@@H](O[C@H]2C[C@@](C)(OC)[C@@H](O)[C@H](C)O2)[C@H](C)[C@@H](O[C@@H]2O[C@H](C)C[C@H](N(C)C)[C@H]2O)[C@](C)(OC)C[C@@H](C)C(=O)[C@H](C)[C@@H](O)[C@]1(C)O [Clarithromycin] + Clc1ccc(COC(Cn2ccnc2)c2ccc(Cl)cc2Cl)c(Cl)c1 [Miconazole]
fitness, [1], one replicate
Settings	first compound 0.007812 µg/mL	first compound 0.01562 µg/mL	first compound 0.03125 µg/mL
partner 1.25 µg/mL	0.924	0.848	0.664
partner 2.5 µg/mL	0.9	0.855	0.66
partner 5 µg/mL	0.869	0.847	0.556

[1]
Settings	fitness
first compound 0.0625 µg/mL, partner 1.073 µg/mL	0.747
first compound 0.0625 µg/mL, partner 2.145 µg/mL	0.638
first compound 0.0625 µg/mL, partner 4.29 µg/mL	0.635
first compound 0.07 µg/mL, partner 1.25 µg/mL	0.167
first compound 0.07 µg/mL, partner 2.5 µg/mL	0.185
first compound 0.07 µg/mL, partner 5 µg/mL	0.107
first compound 0.125 µg/mL, partner 4.29 µg/mL	0.448
first compound 0.14 µg/mL, partner 1.25 µg/mL	0.117
first compound 0.14 µg/mL, partner 2.5 µg/mL	0.151
first compound 0.14 µg/mL, partner 5 µg/mL	0.0925
first compound 0.25 µg/mL, partner 1.073 µg/mL	0.0979
first compound 0.25 µg/mL, partner 2.145 µg/mL	0.0742
first compound 0.25 µg/mL, partner 4.29 µg/mL	0.218
first compound 0.28 µg/mL, partner 1.25 µg/mL	0.0568
first compound 0.28 µg/mL, partner 2.5 µg/mL	0.122
first compound 0.28 µg/mL, partner 5 µg/mL	0.0835

Settings	Bliss interaction score
[2]	0.0854
[3]	0.0979
[4]	0.0897
[5]	0.0558

C[C@@H](O)[C@H]1C(=O)N2C(C(=O)O)=C(SCCNC=N)C[C@H]12 [Imipenem] + CC(=O)NC[C@H]1CN(c2ccc(N3CCOCC3)c(F)c2)C(=O)O1 [Linezolid]
fitness, [1]
Settings	first compound 0.005 µg/mL	first compound 0.0065 µg/mL	first compound 0.01 µg/mL	first compound 0.013 µg/mL	first compound 0.02 µg/mL	first compound 0.026 µg/mL
partner 0.105 µg/mL	0.845	–	0.837	–	0.833	–
partner 0.2 µg/mL	–	0.7	–	0.775	–	0.71
partner 0.21 µg/mL	0.752	–	0.727	–	0.701	–
partner 0.4 µg/mL	–	0.506	–	0.592	–	0.494
partner 0.42 µg/mL	0.6	–	0.47	–	0.578	–
partner 0.8 µg/mL	–	0.116	–	0.225	–	0.148

Settings	Bliss interaction score
[2]	0.0377
[3]	-0.109
[4]	0.128
[5]	0.0656

CC[C@H]1OC(=O)[C@H](C)[C@@H](O[C@H]2C[C@@](C)(OC)[C@@H](O)[C@H](C)O2)[C@H](C)[C@@H](O[C@@H]2O[C@H](C)C[C@H](N(C)C)[C@H]2O)[C@](C)(OC)C[C@@H](C)C(=O)[C@H](C)[C@@H](O)[C@]1(C)O [Clarithromycin] + CN[C@@H]1[C@H](O)[C@H](NC)[C@H]2O[C@@]3(O)C(=O)C[C@@H](C)O[C@H]3O[C@@H]2[C@H]1O [Spectinomycin]
fitness, [1], one replicate
Settings	first compound 0.007812 µg/mL	first compound 0.01562 µg/mL	first compound 0.03125 µg/mL	first compound 0.0625 µg/mL	first compound 0.125 µg/mL	first compound 0.25 µg/mL
partner 4 µg/mL	0.836	0.755	0.669	0.725	0.326	0.156
partner 8 µg/mL	0.741	0.72	0.658	0.676	0.221	0.114
partner 16 µg/mL	0.644	0.664	0.528	–	–	–

fitness, [1]
Settings	first compound 0.07 µg/mL	first compound 0.14 µg/mL	first compound 0.28 µg/mL
partner 4 µg/mL	0.138	0.0851	0.0564
partner 8 µg/mL	0.138	0.0752	0.0774
partner 16 µg/mL	0.114	0.0949	0.0947

Settings	Bliss interaction score
[2]	-0.142
[3]	-0.0344
[4]	-0.0725
[5]	-0.181

CC[C@H]1OC(=O)[C@H](C)[C@@H](O[C@H]2C[C@@](C)(OC)[C@@H](O)[C@H](C)O2)[C@H](C)[C@@H](O[C@@H]2O[C@H](C)C[C@H](N(C)C)[C@H]2O)[C@](C)(OC)C[C@@H](C)C(=O)[C@H](C)[C@@H](O)[C@]1(C)O [Clarithromycin] + CC(C1CCC(C(O1)OC2C(CC(C(C2O)OC3C(C(C(CO3)(C)O)NC)O)N)N)N)NC [Gentamicin]
fitness, [1], one replicate, main component drawn
Settings	first compound 0.007812 µg/mL	first compound 0.01562 µg/mL	first compound 0.03125 µg/mL
partner 2 µg/mL	0.876	0.84	0.63
partner 4 µg/mL	0.873	0.878	0.651
partner 8 µg/mL	0.885	0.842	0.645

fitness, [1], main component drawn
Settings	first compound 0.0625 µg/mL	first compound 0.07 µg/mL	first compound 0.125 µg/mL	first compound 0.14 µg/mL	first compound 0.25 µg/mL	first compound 0.28 µg/mL
partner 2 µg/mL	0.45	0.146	0.228	0.0838	0.0804	0.0949
partner 4 µg/mL	0.447	0.144	0.206	0.0957	0.0925	0.0738
partner 8 µg/mL	0.349	0.195	0.169	0.132	0.104	0.0605

main component drawn
Settings	Bliss interaction score
[2]	0.12
[3]	-0.06
[4]	0.0895
[5]	0.108

CC[C@H]1OC(=O)[C@H](C)[C@@H](O[C@H]2C[C@@](C)(OC)[C@@H](O)[C@H](C)O2)[C@H](C)[C@@H](O[C@@H]2O[C@H](C)C[C@H](N(C)C)[C@H]2O)[C@](C)(OC)C[C@@H](C)C(=O)[C@H](C)[C@@H](O)[C@]1(C)O [Clarithromycin] + CN(C)C(=O)C(CCN1CCC(O)(c2ccc(Cl)cc2)CC1)(c1ccccc1)c1ccccc1 [Loperamide]
fitness, [1], one replicate
Settings	first compound 0.007812 µg/mL	first compound 0.01562 µg/mL	first compound 0.03125 µg/mL	first compound 0.0625 µg/mL	first compound 0.125 µg/mL	first compound 0.25 µg/mL
partner 20 µg/mL	≥ 1	≥ 1	0.711	–	–	–
partner 40 µg/mL	≥ 1	0.995	0.768	–	–	–
partner 68.57 µg/mL	–	–	–	0.913	0.515	0.498
partner 80 µg/mL	0.0268	0.0618	0.0304	–	–	–

fitness, [1]
Settings	first compound 0.0625 µg/mL	first compound 0.07 µg/mL	first compound 0.125 µg/mL	first compound 0.14 µg/mL	first compound 0.28 µg/mL
partner 17.14 µg/mL	0.788	–	0.541	–	–
partner 20 µg/mL	–	0.168	–	0.0771	0.0614
partner 34.28 µg/mL	0.751	–	0.491	–	–
partner 40 µg/mL	–	0.173	–	0.0855	0.0994
partner 80 µg/mL	–	0.0672	–	0.0833	0.047

Settings	Bliss interaction score
[2]	0.18
[3]	0.129
[4]	0.0248
[5]	-0.0355

C[C@@H](O)[C@H]1C(=O)N2C(C(=O)O)=C(SCCNC=N)C[C@H]12 [Imipenem] + CCN(CC)CCOC(=O)c1ccc(N)cc1 [Procaine]
fitness, [1], one replicate
Settings	first compound 0.005 µg/mL	first compound 0.01 µg/mL	first compound 0.02 µg/mL
partner 85.5 µg/mL	0.932	0.963	0.985
partner 171 µg/mL	≥ 1	0.994	≥ 1
partner 342 µg/mL	0.923	0.931	0.883

fitness, [1]
Settings	first compound 0.0065 µg/mL	first compound 0.013 µg/mL	first compound 0.026 µg/mL
partner 85.5 µg/mL	0.977	0.978	0.888
partner 171 µg/mL	0.957	0.963	0.917
partner 342 µg/mL	0.957	0.912	0.841

Settings	Bliss interaction score
[2]	0.0667
[3]	0.0493
[4]	0.0429
[5]	0.0422

C[C@@H](O)[C@H]1C(=O)N2C(C(=O)O)=C(SCCNC=N)C[C@H]12 [Imipenem] + Cn1nnc(-c2ccc(-c3ccc(N4C[C@H](CO)OC4=O)cc3F)cn2)n1 [Tedizolid]
fitness, [1]
Settings	first compound 0.005 µg/mL	first compound 0.0065 µg/mL	first compound 0.01 µg/mL	first compound 0.013 µg/mL	first compound 0.02 µg/mL	first compound 0.026 µg/mL
partner 0.03125 µg/mL	0.922	–	0.917	–	0.913	–
partner 0.0625 µg/mL	0.958	–	0.949	–	0.993	–
partner 0.125 µg/mL	0.829	0.68	0.795	0.758	0.82	0.553
partner 0.25 µg/mL	–	0.553	–	0.607	–	0.578
partner 0.5 µg/mL	–	0.125	–	0.161	–	0.151

Settings	Bliss interaction score
[2]	-0.0424
[3]	-0.17
[4]	0.21
[5]	0.0821

CC[C@H]1OC(=O)[C@H](C)[C@@H](O[C@H]2C[C@@](C)(OC)[C@@H](O)[C@H](C)O2)[C@H](C)[C@@H](O[C@@H]2O[C@H](C)C[C@H](N(C)C)[C@H]2O)[C@](C)(OC)C[C@@H](C)C(=O)[C@H](C)[C@@H](O)[C@]1(C)O [Clarithromycin] + C[C@H]1c2cccc(O)c2C(=O)C2=C(O)[C@]3(O)C(=O)C(C(N)=O)=C(O)[C@@H](N(C)C)[C@@H]3[C@@H](O)[C@@H]21 [Doxycycline]
fitness, [1], one replicate
Settings	first compound 0.007812 µg/mL	first compound 0.01562 µg/mL	first compound 0.03125 µg/mL	first compound 0.0625 µg/mL	first compound 0.125 µg/mL	first compound 0.25 µg/mL
partner 0.003875 µg/mL	–	–	–	0.674	0.375	0.0974
partner 0.00775 µg/mL	–	–	–	0.736	0.317	0.115
partner 0.0155 µg/mL	0.731	0.708	0.61	–	–	–
partner 0.031 µg/mL	0.681	0.669	0.609	0.464	0.143	0.101
partner 0.062 µg/mL	0.587	0.482	0.266	0.267	0.129	0.0712

fitness, [1]
Settings	first compound 0.0625 µg/mL	first compound 0.07 µg/mL	first compound 0.125 µg/mL	first compound 0.14 µg/mL	first compound 0.25 µg/mL	first compound 0.28 µg/mL
partner 0.0155 µg/mL	0.574	0.0409	0.223	0.0521	0.143	0.0358
partner 0.031 µg/mL	–	0.0283	–	0.0438	–	0.0338
partner 0.062 µg/mL	–	0.0302	–	0.0541	–	0.0267

Settings	Bliss interaction score
[2]	-0.161
[3]	-0.107
[4]	-0.324
[5]	-0.116
